Measurements published in US11407725B2 (The Board of Trustees of the University of Illinois, priority 2018, dated 2022).

Legend:
ALDH isoforms = assay: BAAA isoform selectivity assay; assay type: biochemical, human; conditions: 18 μM BAAA, 20 units of each isoform
Method: BAAA activation was determined using UV/Vis spectroscopy. A 2 mM stock solution of BAAA was prepared in DMSO and activated with 2M HCL as described in the ALDEFLUOR™ Kit protocol ([…] Technologies Inc.). Immediately before measurement, BAAA was added to the reaction mixture described above to a final concentration of 18 μM. The solution was mixed vigorously, and the reaction proceeded at room temperature. UV/Vis absorbance spectra were taken from 300 to 500 nm every 30 seconds for 15 minutes. The rate of NADH produced per minute was calculated according to the absorbance at 340 nm (ε=[…] cm^−1). All measurements were performed in triplicate and reported as the average±standard deviation. 20 units of enzyme and 18 μM of BAAA were necessary to detect a significant increase in absorbance at 340 nm for the ALDH1A1 isoform.

ALDH1A1 [1] = target: T1, ALDH1A1 (Homo sapiens, UniProt P00352); assay: ALDH isoform selectivity of red probes: ALDH1A1; assay type: biochemical
T1 construct: made in house
T1 sequence (P00352 1-501): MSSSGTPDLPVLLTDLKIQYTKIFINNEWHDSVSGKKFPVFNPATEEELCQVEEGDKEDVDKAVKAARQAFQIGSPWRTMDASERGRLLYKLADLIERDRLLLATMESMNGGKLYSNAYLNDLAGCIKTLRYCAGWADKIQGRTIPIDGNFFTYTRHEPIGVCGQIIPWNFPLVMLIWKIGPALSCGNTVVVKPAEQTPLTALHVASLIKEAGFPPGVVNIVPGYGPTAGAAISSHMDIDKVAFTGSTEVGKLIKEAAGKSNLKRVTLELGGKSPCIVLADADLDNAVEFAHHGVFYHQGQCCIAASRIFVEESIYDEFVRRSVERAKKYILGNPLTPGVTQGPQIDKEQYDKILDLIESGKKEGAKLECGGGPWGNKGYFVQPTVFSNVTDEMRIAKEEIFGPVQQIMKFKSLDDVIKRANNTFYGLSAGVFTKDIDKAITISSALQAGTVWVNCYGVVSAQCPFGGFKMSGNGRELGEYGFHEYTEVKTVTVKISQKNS

ALDH1A1 [2] = target: T1, ALDH1A1; assay: ALDH isoform selectivity of red probes: ALDH1A1; assay type: biochemical; conditions: Table 2
Method: (§1) Each ALDH isoform was added to a 50 mM triethanolamine solution (pH 7.4) containing 2.0 mM NAD^+ and 100 μM substrate at room temperature. Benzaldehyde was the substrate for ALDH3A1. Propanal was the substrate for all other isoforms. ALDH isoform activity was determined by monitoring the rate of NADH production through the increase in absorbance at 340 nm (ε=6220 M^−1cm^−1). For these assays, 1 unit is defined as the amount of enzyme that catalyzes the conversion of […] per minute. For every combination of dye and enzyme, 2 μM dye was preincubated with 2.0 mM NAD^+ in 50 mM triethanolamine solution (pH 7.4). The reaction was initiated by addition of 1 unit of ALDH. Dyes were excited at 590 nm, and fluorescence was measured continuously at 610 nm.

ALDH1A3 = target: T2, ALDH1A3 (Homo sapiens, UniProt P47895); assay: ALDH isoform selectivity of red probes: ALDH1A3; assay type: biochemical; conditions: Table 2
T2 construct: made in house
T2 sequence (P47895 1-512): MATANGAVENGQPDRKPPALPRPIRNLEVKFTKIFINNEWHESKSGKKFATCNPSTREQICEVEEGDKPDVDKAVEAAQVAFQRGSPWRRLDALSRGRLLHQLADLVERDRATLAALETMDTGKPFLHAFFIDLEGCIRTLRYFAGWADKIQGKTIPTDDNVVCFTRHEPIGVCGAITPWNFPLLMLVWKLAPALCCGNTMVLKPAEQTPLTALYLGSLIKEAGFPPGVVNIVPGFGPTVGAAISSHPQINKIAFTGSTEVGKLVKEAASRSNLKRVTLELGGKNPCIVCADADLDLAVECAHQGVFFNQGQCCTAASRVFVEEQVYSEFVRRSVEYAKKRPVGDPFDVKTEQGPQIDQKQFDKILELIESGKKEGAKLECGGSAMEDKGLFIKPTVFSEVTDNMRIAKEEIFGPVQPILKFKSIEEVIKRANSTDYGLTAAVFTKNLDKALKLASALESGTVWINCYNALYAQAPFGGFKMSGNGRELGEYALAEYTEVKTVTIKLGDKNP
Method: as §1

[3] = Photophysical properties (absorbance, emission, extinction coefficient, quantum yield); assay type: physicochemical; conditions: Probes 1-8

| Structure (SMILES) | reactivity with ALDH isoforms (ALDH isoforms) | enzyme kinetics with ALDH1A1 (ALDH1A1 [1]) | Enzyme Activity 1A1 (ALDH1A1 [2]) | Enzymatic Turn On (ALDH1A1 [2]; ALDH1A1, 2 μM dye) | Enzyme Activity 1A3 (ALDH1A3) | Quantum Yield [3] |
| --- | --- | --- | --- | --- | --- | --- |
| Cc1cc(C)n2c1C=C1C=CC(CCC(=O)NCC=O)=[N+]1[B-]2(F)F [BAAA, BODIPY-aminoacetaldehyde] | react with a variety of isoforms | – | – | – | – | – |
| C[Si]1(C)C2=CC(=O)C=CC2=C(c2ccc(C=O)cc2C(F)(F)F)c2ccc(O)cc21 [Probe 3, 4-(7-Hydroxy-5,5-dimethyl-3-oxo-3,5-dihydrodibenzo[b, e]silin-10-yl)-3-(trifluoromethyl)benzaldehyde] | – | slow enzyme kinetics | Medium | 2.7 | Low | 0.25 |
